Five molecules from ChEMBL document CHEMBL1143303 (Bioorg Med Chem Lett, 2009) can be followed below.

For experiment [1], the target named is DNA (cytosine-5)-methyltransferase 1 (Homo sapiens) (UniProt P26358). The experiment in a line: Inhibition of C1226 catalytic site of DNMT1.
Experiment [2] shares this target. Nature of the experiment: Inhibition of C1226 catalytic site of DNMT1 in presence of S-adenosyl methionine.
In experiment [3] the target is Orphan methyltransferase M.SssI (Spiroplasma monobiae, UniProt P15840). Nature of the experiment: (§1) Inhibition of Spiroplasma sp. MQ-1 M.SssI.
Orphan methyltransferase M.SssI, sequence (P15840 whole entry): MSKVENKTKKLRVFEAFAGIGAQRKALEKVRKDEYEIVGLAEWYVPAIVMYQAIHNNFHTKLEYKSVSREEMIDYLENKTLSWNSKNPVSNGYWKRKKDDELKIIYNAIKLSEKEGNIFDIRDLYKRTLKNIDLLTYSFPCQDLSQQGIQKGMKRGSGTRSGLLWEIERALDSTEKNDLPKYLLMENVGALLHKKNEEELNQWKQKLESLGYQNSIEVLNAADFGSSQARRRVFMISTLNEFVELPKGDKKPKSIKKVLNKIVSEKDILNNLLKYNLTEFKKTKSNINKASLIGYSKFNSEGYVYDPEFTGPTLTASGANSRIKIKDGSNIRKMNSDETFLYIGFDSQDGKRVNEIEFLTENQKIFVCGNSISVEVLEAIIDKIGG
For experiment [4], the target named is Orphan methyltransferase M.SssI (Spiroplasma monobiae) (UniProt P15840). The experiment in a line: Inhibition of Spiroplasma sp. MQ-1 M.SssI up to 100 uM.
Orphan methyltransferase M.SssI (Spiroplasma monobiae), sequence (P15840 whole entry): as above
For experiment [5] the target is unchanged. Described as §1.
The test system of experiment [6] is MV4-11. The experiment in a line: Induction of global DNA hypomethylation in human MV411 cells at 1 uM after 72 hrs by LC-MS/MS analysis relative to control. Type of experiment: functional, cell-based.
Experiment [7] relates to MV4-11. Nature of the experiment: Decrease in global DNA methylation in human MV411 cells at 3 uM after 72 hrs by LC-MS/MS analysis relative to control. Details: scale not given: the % may be the effect or the level left. Type of experiment: functional.
For experiment [8], the system named is MV4-11. The experiment in a line: Decrease in global DNA methylation in human MV411 cells at 30 uM after 72 hrs by LC-MS/MS analysis relative to control. Type of experiment: functional. Also on record: scale not given: the % may be the effect or the level left.

The source made the active and inactive calls. The rule behind the calls is not given here.

DNA (cytosine-5)-methyltransferase 1 (Homo sapiens), sequence (P26358 whole entry): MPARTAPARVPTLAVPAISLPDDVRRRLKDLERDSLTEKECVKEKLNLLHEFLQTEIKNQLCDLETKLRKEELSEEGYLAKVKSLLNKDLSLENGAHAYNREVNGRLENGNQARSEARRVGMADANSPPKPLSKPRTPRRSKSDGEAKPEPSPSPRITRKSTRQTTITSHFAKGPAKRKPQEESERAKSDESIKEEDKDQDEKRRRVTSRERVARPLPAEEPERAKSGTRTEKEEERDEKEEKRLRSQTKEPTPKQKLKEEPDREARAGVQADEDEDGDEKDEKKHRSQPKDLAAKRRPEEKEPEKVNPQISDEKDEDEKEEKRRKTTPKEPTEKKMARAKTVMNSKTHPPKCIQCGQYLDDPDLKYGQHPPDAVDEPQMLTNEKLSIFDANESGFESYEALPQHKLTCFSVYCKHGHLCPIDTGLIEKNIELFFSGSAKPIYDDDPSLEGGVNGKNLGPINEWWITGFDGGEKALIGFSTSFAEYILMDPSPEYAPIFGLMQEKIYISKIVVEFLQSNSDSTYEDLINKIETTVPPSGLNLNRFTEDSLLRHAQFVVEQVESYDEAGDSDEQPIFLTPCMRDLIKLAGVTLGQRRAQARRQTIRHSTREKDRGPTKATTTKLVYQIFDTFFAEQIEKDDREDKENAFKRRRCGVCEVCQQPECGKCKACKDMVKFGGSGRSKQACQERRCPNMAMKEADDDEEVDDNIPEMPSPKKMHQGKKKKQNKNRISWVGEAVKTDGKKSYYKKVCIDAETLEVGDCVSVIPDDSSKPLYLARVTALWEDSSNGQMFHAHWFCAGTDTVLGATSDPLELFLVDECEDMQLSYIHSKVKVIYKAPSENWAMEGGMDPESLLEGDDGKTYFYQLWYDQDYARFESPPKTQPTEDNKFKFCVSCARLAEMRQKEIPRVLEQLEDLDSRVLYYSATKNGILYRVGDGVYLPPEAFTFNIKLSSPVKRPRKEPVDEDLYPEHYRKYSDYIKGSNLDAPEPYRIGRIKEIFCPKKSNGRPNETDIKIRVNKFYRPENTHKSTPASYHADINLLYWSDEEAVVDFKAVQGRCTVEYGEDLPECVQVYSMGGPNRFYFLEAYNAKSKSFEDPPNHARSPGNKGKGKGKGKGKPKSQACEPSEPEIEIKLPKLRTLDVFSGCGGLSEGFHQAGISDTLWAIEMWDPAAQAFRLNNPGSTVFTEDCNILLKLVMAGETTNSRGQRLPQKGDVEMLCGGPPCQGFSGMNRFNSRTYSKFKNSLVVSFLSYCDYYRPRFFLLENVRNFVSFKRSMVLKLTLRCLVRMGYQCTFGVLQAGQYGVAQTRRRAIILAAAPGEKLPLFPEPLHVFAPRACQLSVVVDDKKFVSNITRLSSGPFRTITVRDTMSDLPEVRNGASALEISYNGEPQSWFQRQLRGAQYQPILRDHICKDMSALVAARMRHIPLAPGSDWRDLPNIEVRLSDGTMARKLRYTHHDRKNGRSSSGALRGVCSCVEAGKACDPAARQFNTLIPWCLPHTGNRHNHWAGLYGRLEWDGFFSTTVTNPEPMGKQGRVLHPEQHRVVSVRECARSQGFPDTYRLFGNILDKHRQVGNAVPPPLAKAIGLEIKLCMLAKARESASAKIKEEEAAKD

With `COc1cc(CCC(=O)CC(=O)CCc2ccc(O)c(OC)c2)ccc1O`, the outcome in experiment [1] and in experiment [2] was Active.
Regarding `COc1cc(/C=C/C(O)=C/C(=O)/C=C/c2ccc(O)cc2)ccc1O` [DEMETHOXYCURCUMIN], in experiment [1], the outcome was Active. In addition, the IC50 in experiment [3] was 30 nM.
As for `COc1cc(CCC(=O)CC(O)CCc2ccc(O)c(OC)c2)ccc1O` (centres undefined), the outcome in experiment [1] and in experiment [2] was Active. Moreover, the result in experiment [4] was inactive.
On to `COc1cc(/C=C/C(=O)CC(=O)/C=C/c2ccc(O)c(OC)c2)ccc1O` [CURCUMIN], for which, in experiment [1], the result was Active. The Activity result is “Dose-dependent effect” in experiment [5], 15% in the experiment on MV4-11 [7] and 15% with MV4-11 [8]. The result with MV4-11 [6] was inactive.
On to `O=C(/C=C/c1ccc(O)cc1)CC(=O)/C=C/c1ccc(O)cc1` [BISDEMETHOXYCURCUMIN], for which, in experiment [1], the outcome was Active. Also, the IC50 in experiment [3] was determined as 30 nM.

Usually IC50 stands for the concentration that inhibits the measured activity by half.
